Laboratory results published in patent US20150197492A1, “NOVEL INDENO[1,2-c]QUINOLIN-11-ONE DERIVATIVES, PREPARATION METHOD AND APPLICATION THEREOF” (National Defense Medical Center, priority 2014, published 2015).

Columns and labels:
Type in all cases: cell-based
SN12C = assay: cells; conditions: SN12C (Renal Cancer), 10 μM, 48 hours
K-562 = assay: cells; conditions: K-562 (Leukemia), 10 μM, 48 hours
RXF 393 = assay: cells; conditions: RXF 393 (Renal Cancer), 10 μM, 48 hours
786-0 = assay: cells; conditions: 786-0 (Renal Cancer), 10 μM, 48 hours
NCI-H23 = assay: cells; conditions: NCI-H23 (Non-Small Cell Lung Cancer), 10 μM, 48 hours
SK-OV-3 = assay: cells; conditions: SK-OV-3 (Ovarian Cancer), 10 μM, 48 hours
[1] = test system: 55 to 60 cancer cell lines; conditions: 10 μM; for Mean (mean growth percentage of the tested cancer cell lines): 48 hours, all tested cell lines
UO-31 = assay: cells; conditions: UO-31 (Renal Cancer), 10 μM, 48 hours
OVCAR-4 = assay: cells; conditions: OVCAR-4 (Ovarian Cancer), 10 μM, 48 hours
SK-MEL-2 = assay: cells; conditions: SK-MEL-2 (Melanoma), 10 μM, 48 hours
MOLT-4 = assay: cells; conditions: MOLT-4 (Leukemia), 10 μM, 48 hours
TK-10 = assay: cells; conditions: TK-10 (Renal Cancer), 10 μM, 48 hours
NCI-H322M = assay: cells; conditions: NCI-H322M (Non-Small Cell Lung Cancer), 10 μM, 48 hours
OVCAR-5 = assay: cells; conditions: OVCAR-5 (Ovarian Cancer), 10 μM, 48 hours
OVCAR-3 = assay: cells; conditions: OVCAR-3 (Ovarian Cancer), 10 μM, 48 hours
LOX IMVI = assay: cells; conditions: LOX IMVI (Melanoma), 10 μM, 48 hours
SR = assay: cells; conditions: SR (Leukemia), 10 μM, 48 hours
PC-3 = assay: cells; conditions: PC-3 (Prostate Cancer), 10 μM, 48 hours
MDA-MB-468 = assay: cells; conditions: MDA-MB-468 (Breast Cancer), 10 μM, 48 hours
SK-MEL-5 = assay: cells; conditions: SK-MEL-5 (Melanoma), 10 μM, 48 hours
RPMI-8226 = assay: cells; conditions: RPMI-8226 (Leukemia), 10 μM, 48 hours
M14 = assay: cells; conditions: M14 (Melanoma), 10 μM, 48 hours
NCI-H522 = assay: cells; conditions: NCI-H522 (Non-Small Cell Lung Cancer), 10 μM, 48 hours
SNB-75 = assay: cells; conditions: SNB-75 (CNS Cancer), 10 μM, 48 hours
ACHN = assay: cells; conditions: ACHN (Renal Cancer), 10 μM, 48 hours
SW-620 = assay: cells; conditions: SW-620 (Colon Cancer), 10 μM, 48 hours
COLO 205 = assay: cells; conditions: COLO 205 (Colon Cancer), 10 μM, 48 hours
SNB-19 = assay: cells; conditions: SNB-19 (CNS Cancer), 10 μM, 48 hours
T-47D = assay: cells; conditions: T-47D (Breast Cancer), 10 μM, 48 hours
NCI-H460 = assay: cells; conditions: NCI-H460 (Non-Small Cell Lung Cancer), 10 μM, 48 hours
OVCAR-8 = assay: cells; conditions: OVCAR-8 (Ovarian Cancer), 10 μM, 48 hours
HOP-92 = assay: cells; conditions: HOP-92 (Non-Small Cell Lung Cancer), 10 μM, 48 hours
EKVX = assay: NCI cancer cell cytotoxicity assay, Non-Small Cell Lung Cancer EKVX; conditions: 10 μM, 48 hours

SMILES	growth percentage (SN12C) [%]	growth percentage (K-562) [%]	growth percentage (RXF 393) [%]	growth percentage (786-0) [%]	growth percentage (NCI-H23) [%]	Mean (mean growth percentage of the tested cancer cell lines) [1] [%]	growth percentage (UO-31) [%]	growth percentage (OVCAR-4) [%]	growth percentage (SK-MEL-2) [%]	growth percentage (MOLT-4) [%]	growth percentage (TK-10) [%]	growth percentage (NCI-H322M) [%]	growth percentage (OVCAR-5) [%]	growth percentage (OVCAR-3) [%]	growth percentage (LOX IMVI) [%]	growth percentage (SR) [%]	growth percentage (PC-3) [%]	growth percentage (MDA-MB-468) [%]	growth percentage (SK-MEL-5) [%]	growth percentage (RPMI-8226) [%]	also measured
O=C1c2cc(Cl)ccc2-c2c(N3CCOCC3)nc3ccccc3c21 [SJ-8, 9-Chloro-6-morpholino-11H-indeno[1,2-c]quinolin-11-one]	96.95	89.01	114.61	103.71	90.40	93.66	45.74	96.67	104.29	88.74	101.98	91.28	90.30	102.34	91.20	85.94	79.64	59.47	99.19	83.40	growth percentage (SK-OV-3): 107.26%; growth percentage (M14): 106.99%; growth percentage (NCI-H522): 91.11%; growth percentage (SNB-75): 81.55%; growth percentage (ACHN): 81.66%; growth percentage (SW-620): 103.71%; growth percentage (COLO 205): 100.71%; growth percentage (SNB-19): 100.01%; growth percentage (T-47D): 88.81%; growth percentage (NCI-H460): 102.14%; growth percentage (OVCAR-8): 95.25%; growth percentage (HOP-92): 66.08%
CN1CCN(c2nc3ccccc3c3c2-c2ccc(Cl)cc2C3=O)CC1 [SJ-12, 9-Chloro-6-(4-methylpiperazin-1-yl)-11H-indeno[1,2-c]quinolin-11-one]	83.57	92.13	94.00	89.51	86.27	88.15	47.60	94.70	104.36	92.90	99.56	87.41	99.31	93.41	87.17	75.13	82.93	95.71	97.67	85.92	growth percentage (SK-OV-3): 87.98%; growth percentage (M14): 106.31%; growth percentage (NCI-H522): 96.62%; growth percentage (SNB-75): 70.00%; growth percentage (ACHN): 88.10%; growth percentage (SW-620): 92.76%; growth percentage (COLO 205): 93.65%; growth percentage (SNB-19): 85.41%; growth percentage (T-47D): 76.27%; growth percentage (NCI-H460): 91.83%; growth percentage (OVCAR-8): 87.51%; growth percentage (HOP-92): 38.50%
O=C1c2cc(Cl)ccc2-c2c(SCCO)nc3ccccc3c21 [SJ-25, 6-(2-Hydroxyethylthio)-9-chloro-11H-indeno[1,2-c]quinolin-11-one]	84.58	63.81	79.39	100.58	66.22	79.52	56.23	73.19	95.85	59.49	99.82	73.47	112.54	89.42	68.41	61.70	58.35	77.36	68.56	62.28	growth percentage (EKVX): 30.15%; growth percentage (M14): 98.89%; growth percentage (NCI-H522): 68.89%; growth percentage (SNB-75): 66.06%; growth percentage (ACHN): 88.12%; growth percentage (SW-620): 86.99%; growth percentage (COLO 205): 87.39%; growth percentage (SNB-19): 89.19%; growth percentage (T-47D): 63.89%; growth percentage (NCI-H460): 79.22%; growth percentage (OVCAR-8): 90.21%
O=C1c2cc(Cl)ccc2-c2c(O)nc3ccccc3c21 [SJ-26, 6-Hydroxy-9-chloro-11H-indeno[1,2-c]quinolin-11-one]	96.69	97.48	99.93	114.55	81.56	96.60	70.50	80.74	117.12	95.10	126.63	90.72	126.77	117.80	86.91	77.02	93.44	80.08	84.87	90.60	growth percentage (EKVX): 72.14%; growth percentage (M14): 108.50%; growth percentage (NCI-H522): 92.22%; growth percentage (SNB-75): 80.33%; growth percentage (ACHN): 104.75%; growth percentage (SW-620): 95.26%; growth percentage (COLO 205): 98.25%; growth percentage (SNB-19): 99.28%; growth percentage (T-47D): 67.23%; growth percentage (NCI-H460): 83.32%; growth percentage (OVCAR-8): 107.63%
O=C1c2cc(Cl)ccc2-c2c(Cl)nc3ccccc3c21 [TC-XCl-1, 6,9-Dichloro-11H-indeno[1,2-c]quinolin-11-one]	88.03	102.16	112.80	112.40	79.30	98.17	80.62	94.13	117.11	70.83	138.45	95.38	137.00	119.93	84.23	65.85	92.73	107.92	86.30	92.83	growth percentage (EKVX): 79.27%; number of cancer cell lines whose growth is inhibited ([1]; including leukemia and breast cancer cells): 9; growth percentage (M14): 109.79%; growth percentage (NCI-H522): 89.37%; growth percentage (SNB-75): 82.91%; growth percentage (ACHN): 111.67%; growth percentage (SW-620): 98.29%; growth percentage (COLO 205): 99.18%; growth percentage (SNB-19): 101.30%; growth percentage (T-47D): 86.97%; growth percentage (NCI-H460): 98.68%; growth percentage (OVCAR-8): 101.08%; growth percentage (HOP-92): 71.94%
